Results as given in patent publication US10968215B2 (SHANGHAI HAIHE PHARMACEUTICAL CO., LTD., priority 2016, dated 2021).

biological target: PRC2 complex (EZH2 Y641F/EED/SUZ12/RbAp48/AEBP2) (Homo sapiens (Human), UniProt Q15910, Y641F); test: Activity of a compound to PRC2 complex (EZH2 Y641F), HTRF; details: not given
Sequence (Q15910 whole entry Y641F): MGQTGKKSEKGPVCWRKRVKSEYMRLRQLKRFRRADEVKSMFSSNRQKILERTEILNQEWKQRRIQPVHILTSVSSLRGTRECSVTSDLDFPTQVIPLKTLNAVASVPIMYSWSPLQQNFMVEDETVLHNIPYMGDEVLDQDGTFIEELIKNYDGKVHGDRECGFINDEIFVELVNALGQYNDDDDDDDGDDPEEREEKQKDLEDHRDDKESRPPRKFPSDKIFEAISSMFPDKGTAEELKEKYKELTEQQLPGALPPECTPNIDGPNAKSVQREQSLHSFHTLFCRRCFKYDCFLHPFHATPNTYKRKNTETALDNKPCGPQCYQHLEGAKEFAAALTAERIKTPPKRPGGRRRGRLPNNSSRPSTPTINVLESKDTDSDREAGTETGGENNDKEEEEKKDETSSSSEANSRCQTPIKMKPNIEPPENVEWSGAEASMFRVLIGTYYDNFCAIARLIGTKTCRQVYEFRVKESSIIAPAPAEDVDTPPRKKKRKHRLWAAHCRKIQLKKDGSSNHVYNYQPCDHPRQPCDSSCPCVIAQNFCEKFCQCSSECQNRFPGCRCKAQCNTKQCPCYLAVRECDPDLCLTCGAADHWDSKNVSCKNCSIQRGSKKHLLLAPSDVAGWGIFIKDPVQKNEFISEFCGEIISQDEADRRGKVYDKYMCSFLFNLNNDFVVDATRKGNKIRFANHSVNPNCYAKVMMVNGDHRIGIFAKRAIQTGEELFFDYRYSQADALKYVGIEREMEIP
Sequence (O75530 whole entry partner): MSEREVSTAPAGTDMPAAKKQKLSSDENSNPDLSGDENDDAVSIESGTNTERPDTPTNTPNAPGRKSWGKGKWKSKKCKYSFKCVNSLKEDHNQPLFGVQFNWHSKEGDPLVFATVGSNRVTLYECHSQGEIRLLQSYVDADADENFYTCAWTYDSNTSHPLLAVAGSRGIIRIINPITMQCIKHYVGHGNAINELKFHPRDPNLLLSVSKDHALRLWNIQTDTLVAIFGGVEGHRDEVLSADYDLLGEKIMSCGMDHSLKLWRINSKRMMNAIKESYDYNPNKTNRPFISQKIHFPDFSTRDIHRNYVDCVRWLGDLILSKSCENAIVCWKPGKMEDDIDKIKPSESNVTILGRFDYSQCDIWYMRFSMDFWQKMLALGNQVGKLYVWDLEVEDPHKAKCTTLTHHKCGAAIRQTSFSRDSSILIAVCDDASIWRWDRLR
Sequence (Q15022 whole entry partner): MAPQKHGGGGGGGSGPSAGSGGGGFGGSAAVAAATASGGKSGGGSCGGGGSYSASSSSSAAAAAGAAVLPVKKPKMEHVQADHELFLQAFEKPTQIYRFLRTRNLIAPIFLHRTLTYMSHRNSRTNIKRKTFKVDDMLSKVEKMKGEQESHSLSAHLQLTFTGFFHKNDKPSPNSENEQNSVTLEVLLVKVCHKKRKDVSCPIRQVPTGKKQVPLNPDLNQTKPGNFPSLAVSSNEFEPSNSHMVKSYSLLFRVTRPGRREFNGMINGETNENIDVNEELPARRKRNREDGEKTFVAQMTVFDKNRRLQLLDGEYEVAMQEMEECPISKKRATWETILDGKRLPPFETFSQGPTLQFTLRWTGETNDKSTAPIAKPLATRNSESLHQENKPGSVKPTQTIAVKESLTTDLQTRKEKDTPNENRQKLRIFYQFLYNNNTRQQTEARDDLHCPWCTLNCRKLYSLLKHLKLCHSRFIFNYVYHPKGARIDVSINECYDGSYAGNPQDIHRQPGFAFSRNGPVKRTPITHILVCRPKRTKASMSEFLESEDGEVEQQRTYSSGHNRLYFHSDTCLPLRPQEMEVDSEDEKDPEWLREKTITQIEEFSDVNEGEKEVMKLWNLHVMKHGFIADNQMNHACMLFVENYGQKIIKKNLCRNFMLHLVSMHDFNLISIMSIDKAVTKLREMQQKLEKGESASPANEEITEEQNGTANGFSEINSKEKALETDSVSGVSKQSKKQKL
Sequence (Q09028 whole entry partner): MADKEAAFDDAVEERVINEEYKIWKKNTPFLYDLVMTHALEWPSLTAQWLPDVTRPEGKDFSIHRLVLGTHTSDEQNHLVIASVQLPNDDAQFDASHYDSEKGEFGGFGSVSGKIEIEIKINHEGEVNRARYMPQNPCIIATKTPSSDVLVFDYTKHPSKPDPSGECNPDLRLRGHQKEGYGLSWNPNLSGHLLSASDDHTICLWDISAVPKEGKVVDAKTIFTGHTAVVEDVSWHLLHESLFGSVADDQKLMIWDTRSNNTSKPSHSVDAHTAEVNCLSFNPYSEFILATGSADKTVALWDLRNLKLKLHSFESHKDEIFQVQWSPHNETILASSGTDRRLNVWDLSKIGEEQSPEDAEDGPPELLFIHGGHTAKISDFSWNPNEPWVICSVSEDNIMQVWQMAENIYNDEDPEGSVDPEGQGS
Sequence (Q6ZN18 whole entry partner): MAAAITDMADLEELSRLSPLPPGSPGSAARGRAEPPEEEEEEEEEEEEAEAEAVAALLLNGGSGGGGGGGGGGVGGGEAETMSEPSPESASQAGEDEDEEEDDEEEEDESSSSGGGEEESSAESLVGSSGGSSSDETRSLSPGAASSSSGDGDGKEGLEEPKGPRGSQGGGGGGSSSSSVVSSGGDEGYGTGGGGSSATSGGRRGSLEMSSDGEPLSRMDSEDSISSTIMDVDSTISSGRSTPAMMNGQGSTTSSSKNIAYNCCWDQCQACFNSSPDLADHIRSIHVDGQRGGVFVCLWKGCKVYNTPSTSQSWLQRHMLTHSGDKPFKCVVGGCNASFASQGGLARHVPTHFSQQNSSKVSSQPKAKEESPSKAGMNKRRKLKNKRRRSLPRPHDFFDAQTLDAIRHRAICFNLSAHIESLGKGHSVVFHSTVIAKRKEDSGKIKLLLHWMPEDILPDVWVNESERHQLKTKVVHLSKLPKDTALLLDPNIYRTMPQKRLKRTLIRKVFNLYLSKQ

| Compound | IC50 [nM] |
| --- | --- |
| Cc1cc(=O)c(CNC(=O)c2cc3c(-c4ccc(N)nc4)ccn3c(C(C)N3CCN(CC(F)(F)F)CC3)c2C)c(C)[nH]1 (stereo not drawn) [Compound 184, 1-(6-aminopyridin-3-yl)-N-((2,6-dimethyl-4-oxo-1,4-dihydropyridin-3-yl)methyl)-6-methyl-5-(1-(4-(2,2,2-trifluoroethyl)piperazin-1-yl)ethyl)indolizine-7-carboxamide] | < 100 |
| CCCc1cc(C)[nH]c(=O)c1CNC(=O)c1cc2c(-c3ccc(N)nc3)ccn2c(C(C)N2CCN(CC(F)(F)F)CC2)c1C (stereo not drawn) [Compound 185, 1-(6-aminopyridin-3-yl)-6-methyl-N-((6-methyl-2-oxo-4-propyl-1,2-dihydropyridine-3-yl)methyl)-5-(1-(4-(2,2,2-trifluoroethyl)piperazin-1-yl)ethyl)indolizine-7-carboxamide] | < 100 |
| Cc1[nH]c(=O)c(CNC(=O)c2cc3c(-c4ccc(N)nc4)ccn3c(C(C)N3CCN(CC(F)(F)F)CC3)c2C)c2c1CN(CC(C)C)CC2 (stereo not drawn) [Compound 188, 1-(6-aminopyridin-3-yl)-N-((7-isobutyl-1-methyl-3-oxo-2,3,5,6,7,8-hexahydro-2,7-naphthyridin-4-yl)methyl)-6-methyl-5-(1-(4-(2,2,2-trifluoroethyl)piperazin-1-yl)ethyl)indolizine-7-carboxamide] | 100 to 1000 |
| COc1cc(C)[nH]c(=O)c1CNC(=O)c1cc2c(-c3ccn[nH]3)ccn2c(C(C)OCc2nccs2)c1C (stereo not drawn) [Compound 191, N-((4-methoxy-6-methyl-2-oxo-1,2-dihydropyridin-3-yl)methyl)-6-methyl-1-(1H-pyrazol-5-yl)-5-(1-(thiazol-2-ylmethoxy)ethyl)indolizine-7-carboxamide] | < 100 |

same assay, conditions: read-out: IC50 (EZH2_Y641F); EZH2 Y641F PRC2 complex, HTRF; class symbols

| Compound | IC50 [nM] |
| --- | --- |
| Cc1cc(C(F)(F)F)c(CNC(=O)c2cc3c(-c4ccc(N)nc4)ccn3c(C(C)N3CCN(CC(F)(F)F)CC3)c2C)c(=O)[nH]1 (stereo not drawn) [Compound 186, 1-(6-aminopyridin-3-yl)-6-methyl-N-((6-methyl-2-oxo-4-(trifluoromethyl)-1,2-dihydropyridine-3-yl)methyl)-5-(1-(4-(2,2,2-trifluoroethyl)piperazin-1-yl)ethyl)indolizine-7-carboxamide] | < 100 |
| COc1c(CNC(=O)c2cc3c(-c4ccc(N)nc4)ccn3c(C(C)N3CCN(CC(F)(F)F)CC3)c2C)c(=O)[nH]n1C (stereo not drawn) [Compound 187, 1-(6-aminopyridin-3-yl)-N-((5-methoxy-1-methyl-3-oxo-2,3-dihydro-1H-pyrazole-4-yl)methyl)-6-methyl-5-(1-(4-(2,2,2-trifluoroethyl)piperazin-1-yl)ethyl)indolizine-7-carboxamide] | < 100 |
| Cc1cc(C)c(CNC(=O)c2cc3c(-c4cnn(C5CCOCC5)c4)ccn3c(C(C)N3CCN(CC(F)(F)F)CC3)c2C)c(=O)[nH]1 (stereo not drawn) [Compound 190, N-((4,6-dimethyl-2-oxo-1,2-dihydropyridin-3-yl)methyl)-6-methyl-1-(1-(tetrahydro-2H-pyran-4-yl)-1H-pyrazol-4-yl)-5-(1-(4-(2,2,2-trifluoroethyl)piperazin-1-yl)ethyl)indolizine-7-carb oxamide] | < 100 |
| COc1cc(C)[nH]c(=O)c1CNC(=O)c1cc2c(-c3ccc(C)nc3)ccn2c(C(C)N2CCN(CC(F)(F)F)CC2)c1C (stereo not drawn) [Compound 192, N-((4-methoxy-6-methyl-2-oxo-1,2-dihydropyridin-3-yl)methyl)-6-methyl-1-(6-methylpyridin-3-yl)-5-(1-(4-(2,2,2-trifluoroethyl)piperazin-1-yl)ethyl)indolizine-7-carboxamide] | < 100 |
| COc1cc(-c2ccn3c(C(C)N4CCN(CC(F)(F)F)CC4)c(C)c(C(=O)NCc4c(OC)cc(C)[nH]c4=O)cc23)ccn1 (stereo not drawn) [Compound 193, N-((4-methoxy-6-methyl-2-oxo-1,2-dihydropyridin-3-yl)methyl)-1-(2-methoxypyridine-4-yl)-6-methyl-5-(1-(4-(2,2,2-trifluoroethyl)piperazin-1-yl)ethyl)indolizine-7-carboxamide] | < 100 |
